In assay [1] the target is T1, BiP NBD (Homo sapiens, UniProt P11021). In words: NMR experiment with MABA-ATP (no E1, no E2) and kinetic fit of the MABA-ATP/MABA-ADP functional cycle. It counts as biochemical. Set-up: His6 (N, cleaved yes); made in house; host or cells: E. coli BL21-(DE3)-Lemo, pET28a vector. The method, then: […] After the equilibration time 2D [^13C,^1H]-HMQC spectra were recorded in interleaved mode with 1D ^1H NMR spectra. […] The same setup was used for the alternative experiments by including or excluding E1 and/or E2. When E1 was not included, the ratio of the ATP/ADP NMR signals was used to monitor their relative concentrations.
(§1) (1 picture or pasted object on this page, not shown here)

For a further assay, the target named is BiP. The settings on record: NBD·MABA-ATP ⇌ NBD + MABA-ATP; cited from earlier work.
The target in assay [2] is T1, BiP NBD. The experiment in a line: Equilibrium 2D methyl-TROSY NMR fingerprint spectra with ligands (ATP analogs, calcium). It counts as binding. Also on record: His6 (N, cleaved yes); made in house; host or cells: E. coli BL21-(DE3)-Lemo, pET28a vector. The settings on record: 2D methyl-TROSY compared with in-cyclo states. The protocol: First, we probed calcium binding to ADP-bound NBD by NMR equilibrium experiments. […] (Supplementary Fig. 15d). […] (Supplementary Fig. 16).
AMPPNP (adenylyl imidodiphosphate; Jena-bioscience), AMPPCP (adenylyl methylenediphosphate; Jena-bioscience) and ATP-γ-S (adenosine 5’-(gamma-thiotriphosphate; Jena-bioscience) were dissolved in the HKM reaction buffer (25 mM HEPES, pH 7.5, 150 mM KCl and 10 mM MgCl2) at a concentration of 50 mM directly before to be mixed with the BiP NBD sample. Samples were prepared fresh before each use to minimize the known instability of these analogs that undergo slow hydrolysis in solution.
Supplementary Figure 7. Analysis of the BiP NBD ATP-bound state. a, Combined methyl chemical shift differences between the APD·Pi-bound and the ATP-bound state of BiP NBD in-cyclo. The magnitude of 1 and 1.5 SDs are indicated by an orange and a red line, respectively. b, Overlay of 9 crystal structures of BiP NBD in presence of different nucleotides (colored sticks). c, Backbone root means square deviation (RMSD - Å) between the structures shown in (b) and the NBD apo state (PDB 3LDN). d, 2D [13C,1H]-TROSY spectrum of methyl-labeled BiP NBD in equilibrium with the ATP analogs AMPPNP (green), AMPPCP (orange) or ATP-γ-S (yellow), overlayed with the spectrum in-cyclo (pink).
State- and sequence-specific resonance assignments are indicated for the ADP-bound (light blue), ADP·Pi-bound (dark blue) and the ATP-bound (red) states in-cyclo.
as §1
Supplementary Figure 15. Mapping of calcium binding to BiP NBD. a, Selected details from published structures of BiP. From left to right: yeast BiP(NBD)-Mg2+-ADP (PDB 3QFU), human BiP(NBD)-Mg2+- ADP·Pi (PDB 5EVZ), human BiP(NBD)-Ca2+-ADP (PDB 6ZYH). b, Selected sections of 2D [13C,1H]-methyl-TROSY spectra of residue val50cg1 or Ile52cd1 for the equilibrium experiments of NBD apo (grey), NBD with 5 mM Pi (green), NBD with 1 mM ADP (light blue), NBD with 1 mM ADP·Pi (dark blue), NBD with 1 mM ADP-Ca2+ (dark-pink).and NBD with 3.3 mM calcium ([Mg2+]/[Ca2+]=3) (light-pink). c, Combined methyl chemical shift differences between the BiP NBD APD and the ADP-Ca2+-bound state. The magnitude of 1 and 1.5 SDs are indicated by a light blue and a dark blue line. d, Structure of NBD in […]
the ADP-Ca-bound state (PDB 6ZYH).

The test system of a further assay is Hsp70. Set-up: method as in PMID 8226982. To be noted: optimal range of concentration between 100 and 150 mM; cited from earlier work.
Setting [3] is: MABA-ATP instead of ATP, reactions 1MABA, 2MABA, 3.

Consider five compounds from article PMC12126525, “Mechanism of ATP hydrolysis in the Hsp70 BiP nucleotide-binding domain” (Nature Communications, 2025).

Entries after “also recorded” stand apart in the source; their conditions may differ.

For orientation: koff means a measure of how fast the partners let go of each other. In general, kon refers to a measure of how fast the partners come together. One may read the Kd as the equilibrium constant for the complex coming apart. By kcat is commonly meant the number of substrate molecules converted per active site and unit of time at saturation.

T1 sequence (P11021 19-406): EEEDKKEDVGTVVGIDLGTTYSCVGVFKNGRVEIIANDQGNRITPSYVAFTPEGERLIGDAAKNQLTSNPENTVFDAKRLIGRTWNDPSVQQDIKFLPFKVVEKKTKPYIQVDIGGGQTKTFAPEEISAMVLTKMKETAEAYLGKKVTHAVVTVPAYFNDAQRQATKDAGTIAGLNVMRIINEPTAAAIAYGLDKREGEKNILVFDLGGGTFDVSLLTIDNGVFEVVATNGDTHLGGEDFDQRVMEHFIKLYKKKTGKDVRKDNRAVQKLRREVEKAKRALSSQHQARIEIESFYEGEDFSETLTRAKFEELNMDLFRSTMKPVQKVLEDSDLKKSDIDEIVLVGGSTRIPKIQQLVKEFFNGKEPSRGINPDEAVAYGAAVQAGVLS

Turning to `CNc1ccccc1C(=O)NCCCCNc1nc2c(N)ncnc2n1[C@@H]1O[C@H](COP(=O)(O)OP(=O)(O)OP(=O)(O)O)[C@@H](O)[C@H]1O` [MABA-ATP, 8-[(4-Amino)butyl]-amino-ATP-MAN], at BiP NBD [1] (setting [3]), the koff was 0.035 ± 0.008 s⁻¹ and the kon turned out to be 37000 ± 6000 M⁻¹ s⁻¹. The compound also had a dissociation constant (Kd) at BiP NBD [1] (MABA-ATP instead of ATP, reactions 1MABA, 2MABA, 3: release to apo NBD, T = 37°C) of 950 ± 100 nM. At BiP NBD [1] (NBD·MABA-ATP → NBD·MABA-ADP·Pi), the kcat was 0.036 s⁻¹. For the same compound, at BiP, the Kd is 1000 nM, the “koff1 (MABA-ATP)” value is 0.031 s⁻¹ and the kon was 32000 M⁻¹ s⁻¹.

Take `Nc1ncnc2c1ncn2[C@@H]1O[C@H](COP(=O)(O)OP(=O)(O)NP(=O)(O)O)[C@@H](O)[C@H]1O` [AMPPNP, adenylyl imidodiphosphate]: the “NMR fingerprint of BiP NBD with the ligand” value (“NMR fingerprint of BiP NBD” for short) on BiP NBD [2] is reported as “resemble the ADP·Pi-bound state rather than the ATP-bound state”.

In the case of `Nc1ncnc2c1ncn2[C@@H]1O[C@H](CO[P@](=O)(O)O[P@](=O)(O)O[P@@](=O)(O)S)[C@@H](O)[C@H]1O` [ATP-γ-S, adenosine 5’-(gamma-thiotriphosphate)], the “NMR fingerprint of BiP NBD” value at BiP NBD [2] was “resemble the ADP·Pi-bound state rather than the ATP-bound state; also recorded: showed a peak splitting, indicating the formation of a heterogenous mix of conformations”.

On to `Nc1ncnc2c1ncn2[C@@H]1O[C@H](COP(=O)(O)OP(=O)(O)CP(=O)(O)O)[C@@H](O)[C@H]1O` [AMPPCP, adenylyl methylenediphosphate], for which the “NMR fingerprint of BiP NBD” value on BiP NBD [2] is on record as “resemble the ADP·Pi-bound state rather than the ATP-bound state”.

Regarding `[K+]` [potassium], in the assay on Hsp70, the “increase of the Hsp70 ATP hydrolysis activity” value is reported as 5 fold.
